Holding throughout (assay type): cell-based
In experiment [1] the test system is Enterococcus casseliflavus (VRE) Clin waste. Kind of experiment: MIC agar dilution, VRE strain 23. The method, then: (§1) Molar equivalent concentrations were used to allow comparison between compounds of differing molecular mass. Due to weighing difficulties, any compound in solid form was melted in a water bath prior to dilution. To make ten-times strength concentrations, which takes into account agar dilution, 0.0352 mmol of each compound was weighed into plastic universal bottles and 4 mL of sterile distilled water (SDW) was added. To produce a homogenous emulsion the universals were vortexed; once achieved the emulsions were serial diluted by adding 2 mL to 2 mL of SDW.
(§2) For every 100 mL of Isosensitest agar (IST) (CM0471; Oxoid, Basingstoke, England), 3.1 g of the IST powder was added to 100 mL SDW (as per manufacturer's instructions) and sterilised for 15 minutes at 121° C. Once sterilised, the molten agar was cooled to 50° C. in a water-bath. Subsequently 4.8 g of CCEY powder (BC2160; Bioconnections, Wetherby, England), also known as Brazier's medium, was added to 100 mL SDW for every 100 mL of agar needed. This was then sterilised for 15 minutes at 121° C. Once sterilised the molten agar was cooled to 50° C. in a water-bath and 4 mL of egg-yolk emulsion (S2073; TCS Biosciences Ltd, Buckingham, United Kingdom) and 1 mL of lysed defibrinated horse blood (HB035; TCS Biosciences Ltd, Buckingham, United Kingdom) were also added for every 100 mL needed. Horse blood lysis is achieved by dilution to half concentration with SDW; when fully lysed the mixture will turn dark red in colour.
(§3) 18 mL agar was added to each universal and then poured into sterile Petri dishes. This step creates a 1/10 dilution resulting in agar plates of the required strength. Control plates for each set of strains were created by adding 18 mL of agar to 2 mL of SDW.
(§4) Suspensions of each bacterial species were prepared with a density equal to that of a 0.5 McFarland standard using a densitometer. All suspensions were made using sterile distilled water and fresh 18-20 hour cultures. As a 0.5 McFarland standard contains 1.5×10^8 CFU/mL and the multipoint inoculators applies 1 μL spots of liquid, each bacterial suspension was diluted 1/15 (20 μL suspension to 280 μL sterile distilled water).
(§5) Bacterial suspensions were prepared from fresh 18-24 hour cultures as previously described. 1 μL of each strain was inoculated onto all 100 agar plates containing a different chemical concentration and the 2 control plates. This was done using a multipoint inoculator which inoculates 20 strains per plate. All plates were incubated for 22 hours at 37° C. in aerobic conditions.
(§6) Each plate was examined for bacterial growth after 22 and 48 hours, with each being incubated in between examinations. A positive result was recorded as growth of ≧10 colonies. A negative result was recorded as growth of <10 colonies as this is equivalent to 99.9% inhibition. The lowest concentration of chemical that inhibited growth was recorded as the MIC. The results are recorded in Table IV below, where the numbers are quoted in mmol/L.
(§7) Given the positive performance of the ethoxylates of lauryl alcohol in reducing the MIC for a number of the micro-organisms tested, further MIC testing of Laureth-1 [C12E1] through to Laureth-8 [C12E8] was conducted on each of the following: • 10 strains of vancomycin-resistant enterococci (VRE)—listed in Table V below; and • 20 strains of methicillin-resistant Staphylococcus aureus (MRSA)—listed in Table VI.
(§8) The alkanol, alkanol derivatives, agar plates, and inocula were all prepared in the same way as described above.
(§9) The plates were examined in the same manner as described above and the results are recorded in Table VII below, where the numbers are quoted in mmol/L.

Another experiment has as its system MRSA FRA 95035. Kind of experiment: MIC agar dilution, MRSA strain 37. To be noted: Staphylococcus aureus. The method, then: as §1, §2, §3, §4, §5, §6, §7, §8, §9
In general terms: In agar dilution, organisms are placed on agar that contains the substance at set levels.

The next experiment deals with Staphylococcus aureus. Kind of experiment: MIC agar dilution, micro-organism 13 (6571). Particulars: Staphylococcus aureus 6571. Put shortly:
(§10)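 Twofold dilutions of compound emulsions in water were set in Isosensitest agar with Brazier's CCEY medium, egg yolk and lysed horse blood. Spots of 1 µL from 0.5 McFarland suspensions diluted 1/15 were incubated aerobically at 37 °C and read at 22 and 48 h. MIC (mmol/L) was the lowest concentration giving <10 colonies.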

For experiment [2], the system named is MRSA GER 1966/97 (Hanover IIIc). Kind of experiment: MIC agar dilution, MRSA strain 36. Particulars: Staphylococcus aureus. How it is done: as §1, §2, §3, §4, §5, §6, §7, §8, §9
Another experiment has as its system Providencia rettgeri. Kind of experiment: MIC agar dilution, micro-organism 3 (7475). Particulars: Providencia rettgeri 7475. The gist of the method:
as §10

For a further experiment, the system named is Enterococcus faecium. Kind of experiment: MIC agar dilution, micro-organism 16 (7171). Particulars: Enterococcus faecium 7171. The gist of the method:
as §10

The next experiment relates to Steptococcus pyogenes. Kind of experiment: MIC agar dilution, micro-organism 11 (8306). Particulars: Steptococcus pyogenes 8306. The gist of the method:
as §10

For the next experiment, the system named is MRSA EMRSA 16 00998/95. Kind of experiment: MIC agar dilution, MRSA strain 47. To be noted: Staphylococcus aureus. How it is done:
as §1, §2, §3, §4, §5, §6, §7, §8, §9

The subject of a further experiment is MRSA BEL 97597. Kind of experiment: MIC agar dilution, MRSA strain 33. To be noted: Staphylococcus aureus. The method, then: as §1, §2, §3, §4, §5, §6, §7, §8, §9
The subject of the next experiment is MRSA EMRSA 16 21354/95. Kind of experiment: MIC agar dilution, MRSA strain 44. Particulars: Staphylococcus aureus. The method, then:
as §1, §2, §3, §4, §5, §6, §7, §8, §9

For the next experiment, the system named is MRSA EMRSA 16 07924/95. Kind of experiment: MIC agar dilution, MRSA strain 49. Particulars: Staphylococcus aureus. The method, then:
as §1, §2, §3, §4, §5, §6, §7, §8, §9

The subject of a further experiment is Candida glabrata. Kind of experiment: MIC agar dilution, micro-organism 20 (3943). To be noted: Candida glabrata 3943. Put shortly: as §10
The subject of experiment [3] is Enterococcus faecalis (VRE) PHLS URINE 2000. Kind of experiment: MIC agar dilution, VRE strain 21. How it is done:
as §1, §2, §3, §4, §5, §6, §7, §8, §9

Where [4] appears, read: Staphylococcus aureus, 22 h, 22 hrs, read-out: MIC.
The mark [5] stands for this setting: Staphylococcus aureus, 48 h, 48 hrs, read-out: MIC.
[6] abbreviates: Nakaseomyces glabratus, 22 h, 22 hrs, read-out: MIC.
The mark [7] stands for this setting: Nakaseomyces glabratus, 48 h, 48 hrs, read-out: MIC.

≈ marks a conversion by molar mass, not a printed value. Like-named read-outs stand apart in the source and are kept apart here.

For orientation: MIC means the smallest concentration in the dilution series that meets the test's criterion for growth inhibition.

Turning to `CCCCCCCCCCCCOCCOCCOCCOCCOCCO` [L5, Pentaethylene Glycol Monododecyl Ether], the MIC (in experiment [1] (22 hrs); in experiment [1] (48 hrs); in the experiment on MRSA FRA 95035 (22 hrs); with MRSA FRA 95035 (48 hrs); in the experiment on Staphylococcus aureus (setting [4]); in the experiment on Staphylococcus aureus (setting [5])) was 110 µM (≈ 44.7 µg/mL) in each case. Further, the MIC in [2] (22 hrs) is 110 µM (≈ 44.7 µg/mL); in experiment [2] (48 hrs), 110 µM (≈ 44.7 µg/mL); in the experiment on Providencia rettgeri (22 hrs, read-out: MIC) it was > 880 µM; in the experiment with Providencia rettgeri (48 hrs, read-out: MIC) it was > 880 µM; in the experiment with Enterococcus faecium (22 hrs, read-out: MIC), 220 µM (≈ 89.5 µg/mL); with Enterococcus faecium (48 hrs, read-out: MIC) it was 220 µM (≈ 89.5 µg/mL). Also, the MIC with Steptococcus pyogenes (22 h, 22 hrs, read-out: MIC) is ≤ 50 µM; with Steptococcus pyogenes (48 h, 48 hrs, read-out: MIC) it was ≤ 50 µM; in the experiment with MRSA EMRSA 16 00998/95 (22 hrs), 110 µM (≈ 44.7 µg/mL); in the experiment with MRSA EMRSA 16 00998/95 (48 hrs) it was 110 µM (≈ 44.7 µg/mL); in the experiment on MRSA BEL 97597 (22 hrs), 110 µM (≈ 44.7 µg/mL); in the experiment with MRSA BEL 97597 (48 hrs) it was 110 µM (≈ 44.7 µg/mL). The MIC in the experiment with MRSA EMRSA 16 21354/95 (22 hrs) stood at 110 µM (≈ 44.7 µg/mL); with MRSA EMRSA 16 21354/95 (48 hrs), 110 µM (≈ 44.7 µg/mL); against MRSA EMRSA 16 07924/95 (22 hrs) it was 110 µM (≈ 44.7 µg/mL); in the experiment with MRSA EMRSA 16 07924/95 (48 hrs) it was 110 µM (≈ 44.7 µg/mL); in the experiment with Candida glabrata (setting [6]), 110 µM (≈ 44.7 µg/mL); with Candida glabrata (setting [7]), 220 µM (≈ 89.5 µg/mL). For the same molecule, the MIC in experiment [3] (22 hrs) and in experiment [3] (48 hrs) was 110 µM (≈ 44.7 µg/mL) throughout.

With `CCCCCCCCCCCCCOCCOCCOCCOCCOCCOCCO` [C13E6, polyoxyethylene (6) tridecyl alcohol], the MIC against Staphylococcus aureus (22 hrs) was 110 µM (≈ 51.1 µg/mL); against Staphylococcus aureus (48 hrs), 110 µM (≈ 51.1 µg/mL); with Providencia rettgeri (22 hrs), >880 µM; with Providencia rettgeri (48 hrs) it was >880 µM; in the experiment on Enterococcus faecium (22 hrs) it was >880 µM; with Enterococcus faecium (48 hrs), >880 µM. For the same molecule, the MIC was 55 µM (≈ 25.6 µg/mL) in the experiment on Steptococcus pyogenes (22 hrs), 55 µM (≈ 25.6 µg/mL) against Steptococcus pyogenes (48 hrs), >880 µM against Candida glabrata (22 hrs) and >880 µM in the experiment with Candida glabrata (48 hrs).

`CCCCCCCCCCCCOCCOCCOCCOCCOCCOCCOCCOCCO` [L8, Octaethylene Glycol Monododecyl Ether]: the MIC was 440 µM (≈ 237 µg/mL) in [1] (22 hrs); 440 µM (≈ 237 µg/mL) in experiment [1] (48 hrs); > 440 µM in the experiment with MRSA FRA 95035 (22 hrs); > 440 µM in the experiment with MRSA FRA 95035 (48 hrs); 110 µM (≈ 59.3 µg/mL) in the experiment on Staphylococcus aureus (setting [4]); 110 µM (≈ 59.3 µg/mL) with Staphylococcus aureus (setting [5]). The MIC was 110 µM (≈ 59.3 µg/mL) in experiment [2] (22 hrs); 110 µM (≈ 59.3 µg/mL) in [2] (48 hrs); > 880 µM in the experiment on Providencia rettgeri (22 hrs, read-out: MIC); > 880 µM in the experiment with Providencia rettgeri (48 hrs, read-out: MIC); > 880 µM with Enterococcus faecium (22 hrs, read-out: MIC); > 880 µM in the experiment with Enterococcus faecium (48 hrs, read-out: MIC). Besides, the MIC was ≤ 50 µM with Steptococcus pyogenes (22 h, 22 hrs, read-out: MIC); ≤ 50 µM with Steptococcus pyogenes (48 h, 48 hrs, read-out: MIC); > 440 µM in the experiment on MRSA EMRSA 16 00998/95 (22 hrs); > 440 µM with MRSA EMRSA 16 00998/95 (48 hrs); 220 µM (≈ 119 µg/mL) against MRSA BEL 97597 (22 hrs); > 440 µM with MRSA BEL 97597 (48 hrs). Also, the MIC was > 440 µM in the experiment with MRSA EMRSA 16 21354/95 (22 hrs); > 440 µM with MRSA EMRSA 16 21354/95 (48 hrs); > 440 µM in the experiment on MRSA EMRSA 16 07924/95 (22 hrs); > 440 µM against MRSA EMRSA 16 07924/95 (48 hrs); > 880 µM in the experiment on Candida glabrata (setting [6]); > 880 µM in the experiment with Candida glabrata (setting [7]). Also, the MIC in experiment [3] (22 hrs) and in experiment [3] (48 hrs) was 220 µM (≈ 119 µg/mL) in each case.

Source of the values: patent US20130165368A1, “ANTIMICROBIAL COMPOUNDS” (priority 2010, published 2013).
